Positions count from the first letter of the chain named.
Tests used:
GIPR [1] = molecular target: T1, GIPR (Homo sapiens, UniProt P48546, T345F); experiment: cAMP accumulation assay (LANCE Ultra cAMP kit), GIPR WT, mutant or modified constructs; type: cell-based; design: acylated tirzepatide to the full-length or modified; Flag; expressed in transfected cells; host or cells: HEK293T; conditions: GIPR T345F, HEK293T; for EC50: read-out: cAMP pEC50 (converted)
T1 sequence (P48546 22-466 T345F): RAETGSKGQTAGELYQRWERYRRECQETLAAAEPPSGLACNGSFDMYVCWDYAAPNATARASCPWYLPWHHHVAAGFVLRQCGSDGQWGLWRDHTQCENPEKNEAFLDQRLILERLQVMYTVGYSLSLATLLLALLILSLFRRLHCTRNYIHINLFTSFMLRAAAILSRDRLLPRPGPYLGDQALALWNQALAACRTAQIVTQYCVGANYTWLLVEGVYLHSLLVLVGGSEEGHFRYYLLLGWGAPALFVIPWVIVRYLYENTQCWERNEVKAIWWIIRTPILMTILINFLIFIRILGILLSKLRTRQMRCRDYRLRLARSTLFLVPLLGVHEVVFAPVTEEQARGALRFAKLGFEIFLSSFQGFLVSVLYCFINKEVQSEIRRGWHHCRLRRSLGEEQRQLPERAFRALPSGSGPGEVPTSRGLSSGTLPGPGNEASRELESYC
Experimental: Human embryonic kidney 293 cells containing SV40 large T-antigen (HEK293T) were cultured in DMEM (Gibco) supplemented with 10% (v/v) fetal bovine serum (FBS, Gibco), 1 mM sodium pyruvate (Gibco) and 100 units/mL penicillin and 100 μg/mL streptomycin at 37 °C in 5% CO2. Chinese hamster ovary (CHO-K1) cells were cultured in F-12 (Gibco) containing 10% FBS, 100 units/mL penicillin and 100 μg/mL streptomycin at 37 °C in 5% CO2. For cAMP and receptor expression assays, HEK293T cells were seeded into 6-well cell culture plates at a density of 7 × 10^5 cells per well. After overnight incubation, cells were transfected with GIPR, GLP-1R or GCGR construct using Lipofectamine 2000 or Lipofectamine 3000 transfection reagent (Invitrogen). For whole-cell binding assay, CHO-K1 cells were seeded into 96-well fibronectin-treated cell culture plates at a density of 3 × 10^4 cells per well. After overnight incubation, cells were transfected with GIPR, GLP-1R or GCGR construct using Lipofectamine 2000 transfection reagent (Invitrogen). Following 24 h culturing, the transfected cells were ready for use.
A BRIL fusion protein was added at the N-terminal of the ECD with a TEV protease site and 2GSA linker between them. C-terminal 45 amino acids (Q422-C466) of the receptor were truncated. LgBiT was added at the end of helix 8 with a 15-amino acid (15AA) polypeptide linker in between, followed by a TEV protease cleavage site and an OMBP-MBP tag. […] The construct and various mutants of human GIPR were cloned into pcDNA3.1 vector for cAMP accumulation and whole-cell binding assays.
For GIPR, GLP-1R and GCGR, multi-targeting agonist stimulated cAMP accumulation was measured by a LANCE Ultra cAMP kit (PerkinElmer). After 24 h culture, the transfected cells were seeded into 384-well microtiter plates at a density of 3,000 cells per well in HBSS supplemented with 5 mM HEPES, 0.1% (w/v) BSA or 0.1% (w/v) casein and 0.5 mM 3-isobutyl-1-methylxanthine. The cells were stimulated with different concentrations of peptide agonists for 40 min at RT. Eu-cAMP tracer and ULight^TM-anti-cAMP were then diluted by cAMP detection buffer and added to the plates separately to terminate the reaction. Plates were incubated at RT for 1 h and the fluorescence intensity measured at 620 nm and […] by an EnVision multilabel plate reader (PerkinElmer).

GIPR [2] = molecular target: T2, GIPR (Homo sapiens, UniProt P48546, R370A); experiment: Whole-cell binding assay, competition with 125I-GIP1-42; design: acylated tirzepatide to the full-length or modified; Flag; expressed in transfected cells; conditions: GIPR R370A, CHO-K1
T2 sequence (P48546 22-466 R370A): T1 sequence (P48546 22-466 T345F) with F324T, R349A
In short: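 Transiently transfected CHO-K1 cells expressing WT or mutant GIPR were washed in F-12 with 0.1% BSA or 0.1% casein and 33 mM HEPES, then incubated 2 h at 37 °C. After ice-cold PBS washes, cells were lysed and bound radioactivity counted (CPM).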

Compound: CCCCCCCCCCCCCCCC(=O)N[C@@H](CCC(=O)NCCCC[C@H](NC(=O)[C@H](CC(=O)O)NC(=O)[C@H](CO)NC(=O)[C@@H](NC(=O)[C@H](Cc1ccccc1)NC(=O)[C@@H](NC(=O)CNC(=O)[C@H](CCC(N)=O)NC(=O)C(C)(C)NC(=O)[C@@H](N)Cc1c[nH]cn1)[C@@H](C)O)[C@@H](C)O)C(=O)N[C@@H](CO)C(=O)N[C@@H](CCCCN)C(=O)N[C@@H](Cc1ccc(O)cc1)C(=O)N[C@@H](CC(C)C)C(=O)N[C@@H](CC(=O)O)C(=O)N[C@@H](CCC(=O)O)C(=O)N[C@@H](CCCNC(=N)N)C(=O)N[C@@H](C)C(=O)N[C@@H](C)C(=O)N[C@@H](CCC(N)=O)C(=O)N[C@@H](CC(=O)O)C(=O)N[C@@H](Cc1ccccc1)C(=O)N[C@H](C(=O)N[C@@H](CCC(N)=O)C(=O)N[C@@H](Cc1c[nH]c2ccccc12)C(=O)N[C@@H](CC(C)C)C(=O)N[C@@H](CC(C)C)C(=O)N[C@@H](CC(=O)O)C(=O)NCC(=O)NCC(=O)N1CCC[C@H]1C(=O)N[C@@H](CO)C(=O)N[C@@H](CO)C(=O)NCC(=O)N[C@@H](C)C(=O)N1CCC[C@H]1C(=O)N1CCC[C@H]1C(=O)N1CCC[C@H]1C(=O)N[C@@H](CO)C(N)=O)C(C)C)C(=O)O [Peptide 20]
- EC50 (GIPR [1]): 0.00794 nM
- Emax (GIPR [1]; HEK-293T): 99.6 ± 2.09%
- binding Span (GIPR [2]): 22.84 ± 2.01 % WT
- IC50 (GIPR [2]; read-out: binding pIC50 (converted)): 5.62 nM

Compound: CC[C@H](C)[C@H](NC(=O)[C@H](CC(C)C)NC(=O)[C@H](Cc1c[nH]c2ccccc12)NC(=O)[C@H](CCC(N)=O)NC(=O)[C@@H](NC(=O)[C@H](Cc1ccccc1)NC(=O)[C@H](C)NC(=O)[C@H](CCCCNC(=O)COCCOCCNC(=O)COCCOCCNC(=O)CC[C@H](NC(=O)CCCCCCCCCCCCCCCCCCC(=O)O)C(=O)O)NC(=O)[C@H](CCC(N)=O)NC(=O)[C@H](C)NC(=O)[C@@H](NC(=O)[C@H](CCCCN)NC(=O)[C@H](CC(=O)O)NC(=O)[C@H](CC(C)C)NC(=O)C(C)(C)NC(=O)[C@@H](NC(=O)[C@H](CO)NC(=O)[C@H](Cc1ccc(O)cc1)NC(=O)[C@H](CC(=O)O)NC(=O)[C@H](CO)NC(=O)[C@@H](NC(=O)[C@H](Cc1ccccc1)NC(=O)[C@@H](NC(=O)CNC(=O)[C@H](CCC(=O)O)NC(=O)C(C)(C)NC(=O)[C@@H](N)Cc1ccc(O)cc1)[C@@H](C)O)[C@@H](C)O)[C@@H](C)CC)[C@@H](C)CC)C(C)C)C(=O)N[C@@H](C)C(=O)NCC(=O)NCC(=O)N1CCC[C@H]1C(=O)N[C@@H](CO)C(=O)N[C@@H](CO)C(=O)NCC(=O)N[C@@H](C)C(=O)N1CCC[C@H]1C(=O)N1CCC[C@H]1C(=O)N1CCC[C@H]1C(=O)N[C@@H](CO)C(N)=O [Tirzepatide]
- EC50 (GIPR [1]): 0.0141 nM
- binding Span (GIPR [2]): 10.40 ± 2.67 % WT
- binding pIC50 (GIPR [2]): N.B.

— article PMC8881610 (Nature Communications, 2022)
